Here are results for seven compounds from paper PMC3922815 (PLoS ONE, 2014).

A word on the Ki: it is a measure of affinity in units of concentration, obtained from inhibition or displacement. A lower Ki goes with higher affinity. Broadly, the half-life is the time in which the quantity being followed falls by half. As usually defined, the Kd is the constant that tells how readily two partners part at equilibrium.

“And” between values parts separate entries of the source, which are not always exact repeats. Equal values may be shown once. Read-outs that look alike come from different tables or passages of the source.

Data set [1] concerns the target T1, human GABAA α3β2γ2 (Homo sapiens, UniProt P18507+P34903). Kind of data set: biochemical.
Data set [2] addresses T2, human GABAA α1β2γ2 (Homo sapiens, UniProt P14867+P18507). Nature of the data set: biochemical.
Data set [3] concerns the target native GABAA receptors from rat-brain homogenates.
The target of data set [4] is T3, human GABAA α2β2γ2 (Homo sapiens, UniProt P18507+P47869). Nature of the data set: biochemical.
Data set [5] addresses T4, human GABAA α5β2γ2 (Homo sapiens, UniProt P18507+P31644). The following applies: Ki α5β2γ2 / Ki α2β2γ2.
In data set [6] the target is T4, human GABAA α5β2γ2. Nature of the data set: biochemical.
Data set [7] concerns the target T3, human GABAA α2β2γ2.
Data set [8] has as its target T1, human GABAA α3β2γ2. The settings on record: Ki α3β2γ2 / Ki α2β2γ2.
The target of data set [9] is T2, human GABAA α1β2γ2. The settings on record: for Binding affinity normalized to GABAA α2 (ratio of Ki values): Ki α1β2γ2 / Ki α2β2γ2.
For data set [10], the target named is human GABAA-receptor complexes α1β2γ2, α2β2γ2, α3β2γ2, α5β2γ2.
Data set [11] concerns PTZ and audiogenic-induced seizures. The arrangement: method as in PMID 10816315. The settings on record: PTZ and audiogenic-induced seizures in mice; cited from earlier work.
The target of data set [12] is T1, human GABAA α3β2γ2.
Data set [13] deals with refractory epilepsy patients. The arrangement: method as in PMID 3828198. The following applies: dosages giving concentrations similar to those after clobazam dosing; cited from earlier work.
Data set [14] addresses T4, human GABAA α5β2γ2.
For data set [15], the target named is T3, human GABAA α2β2γ2. The source holds these as a separate data set.
For data set [16] the following is noted: cited from earlier work.
The test system of data set [17] is pentylenetetrazole (PTZ)-induced seizures. The arrangement: method as in PMID 17092983. The settings on record: greatest diazepam dosage, cited from earlier work.
The test system of data set [18] is tonic convulsions following PTZ administration. The arrangement: method as in PMID 11021797. The following applies: cited from earlier work; for percentage of mice convulsing: 3 mg/kg.

T4 sequence (P31644 32-462): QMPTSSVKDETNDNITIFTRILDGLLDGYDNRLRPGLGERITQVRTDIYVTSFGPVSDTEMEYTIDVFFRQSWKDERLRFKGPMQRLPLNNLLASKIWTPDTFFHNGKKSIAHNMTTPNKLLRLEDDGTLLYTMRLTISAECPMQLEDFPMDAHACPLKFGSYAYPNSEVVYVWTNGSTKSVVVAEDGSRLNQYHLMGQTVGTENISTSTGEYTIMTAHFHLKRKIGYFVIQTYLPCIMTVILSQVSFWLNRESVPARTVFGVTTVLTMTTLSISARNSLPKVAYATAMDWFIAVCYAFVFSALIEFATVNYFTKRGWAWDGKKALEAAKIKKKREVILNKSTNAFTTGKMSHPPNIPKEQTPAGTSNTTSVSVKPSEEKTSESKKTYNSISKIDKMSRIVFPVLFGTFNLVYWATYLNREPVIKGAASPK
T4 sequence (P47870 25-512 partner limits assumed): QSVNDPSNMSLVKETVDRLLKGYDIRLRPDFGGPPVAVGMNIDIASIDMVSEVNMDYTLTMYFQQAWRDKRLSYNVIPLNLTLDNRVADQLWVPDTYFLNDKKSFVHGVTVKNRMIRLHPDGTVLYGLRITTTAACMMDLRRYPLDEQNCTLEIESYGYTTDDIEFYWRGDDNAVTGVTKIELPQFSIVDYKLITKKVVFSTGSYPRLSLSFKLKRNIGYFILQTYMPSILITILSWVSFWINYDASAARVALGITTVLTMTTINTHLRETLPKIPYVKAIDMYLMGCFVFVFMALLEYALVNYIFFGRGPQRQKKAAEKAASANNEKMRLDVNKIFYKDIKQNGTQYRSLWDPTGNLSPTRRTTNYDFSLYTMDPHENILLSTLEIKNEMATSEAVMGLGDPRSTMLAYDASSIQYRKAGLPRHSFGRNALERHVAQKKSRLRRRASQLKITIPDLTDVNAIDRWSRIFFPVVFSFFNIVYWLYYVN
T4 sequence (P18507 40-475): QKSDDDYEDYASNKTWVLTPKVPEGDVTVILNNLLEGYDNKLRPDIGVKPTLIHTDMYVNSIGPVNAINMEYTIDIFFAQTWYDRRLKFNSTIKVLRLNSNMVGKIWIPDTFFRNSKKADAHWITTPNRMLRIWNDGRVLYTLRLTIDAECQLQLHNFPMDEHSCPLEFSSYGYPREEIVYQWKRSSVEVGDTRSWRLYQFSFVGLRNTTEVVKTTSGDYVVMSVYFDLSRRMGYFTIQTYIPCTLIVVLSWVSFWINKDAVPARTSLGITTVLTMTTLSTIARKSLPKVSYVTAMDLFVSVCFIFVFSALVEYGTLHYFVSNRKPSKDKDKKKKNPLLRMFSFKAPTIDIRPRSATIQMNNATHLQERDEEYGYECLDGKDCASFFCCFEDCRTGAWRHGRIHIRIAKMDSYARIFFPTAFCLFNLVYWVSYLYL
T2 sequence (P14867 28-456): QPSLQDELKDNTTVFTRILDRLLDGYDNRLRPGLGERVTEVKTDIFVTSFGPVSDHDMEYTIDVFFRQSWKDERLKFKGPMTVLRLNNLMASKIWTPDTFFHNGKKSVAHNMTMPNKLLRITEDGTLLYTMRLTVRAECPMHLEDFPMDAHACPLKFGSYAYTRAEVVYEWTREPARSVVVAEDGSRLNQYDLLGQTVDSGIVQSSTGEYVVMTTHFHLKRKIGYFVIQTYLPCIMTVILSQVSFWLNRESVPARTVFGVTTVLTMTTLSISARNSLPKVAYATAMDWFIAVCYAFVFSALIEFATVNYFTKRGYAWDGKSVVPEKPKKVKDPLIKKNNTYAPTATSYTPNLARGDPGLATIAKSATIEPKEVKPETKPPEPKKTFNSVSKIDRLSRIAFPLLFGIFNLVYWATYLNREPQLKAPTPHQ
T2 sequence (P47870 25-512 partner limits assumed): as the sequence (P47870 25-512 partner limits assumed) above
T2 sequence (P18507 40-475): as the sequence (P18507 40-475) above
T1 sequence (P34903 29-492): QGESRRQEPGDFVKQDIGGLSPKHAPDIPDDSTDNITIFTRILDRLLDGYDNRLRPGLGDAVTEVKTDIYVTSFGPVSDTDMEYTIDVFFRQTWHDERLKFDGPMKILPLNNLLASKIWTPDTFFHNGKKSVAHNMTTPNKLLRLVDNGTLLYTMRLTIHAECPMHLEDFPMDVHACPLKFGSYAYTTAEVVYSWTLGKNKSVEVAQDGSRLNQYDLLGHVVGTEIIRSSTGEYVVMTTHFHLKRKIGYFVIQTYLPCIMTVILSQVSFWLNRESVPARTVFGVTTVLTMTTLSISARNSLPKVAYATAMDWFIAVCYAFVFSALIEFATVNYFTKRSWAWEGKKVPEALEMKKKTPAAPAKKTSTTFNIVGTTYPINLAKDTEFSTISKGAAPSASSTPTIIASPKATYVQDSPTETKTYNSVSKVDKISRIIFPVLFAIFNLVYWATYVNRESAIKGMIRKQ
T1 sequence (P47870 25-512 partner limits assumed): as the sequence (P47870 25-512 partner limits assumed) above
T1 sequence (P18507 40-475): as the sequence (P18507 40-475) above
T3 sequence (P47869 29-451): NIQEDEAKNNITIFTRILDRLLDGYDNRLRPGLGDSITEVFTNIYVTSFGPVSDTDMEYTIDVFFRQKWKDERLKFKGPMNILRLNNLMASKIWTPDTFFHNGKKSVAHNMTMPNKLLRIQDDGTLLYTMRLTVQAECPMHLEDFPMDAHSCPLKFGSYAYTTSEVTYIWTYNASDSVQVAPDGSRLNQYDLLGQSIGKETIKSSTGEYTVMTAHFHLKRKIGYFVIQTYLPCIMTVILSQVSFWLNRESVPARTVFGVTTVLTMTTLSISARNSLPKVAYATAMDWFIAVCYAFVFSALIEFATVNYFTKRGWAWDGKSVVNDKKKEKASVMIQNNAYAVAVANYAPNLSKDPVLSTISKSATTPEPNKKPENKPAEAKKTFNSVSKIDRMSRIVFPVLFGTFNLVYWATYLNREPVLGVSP
T3 sequence (P47870 25-512 partner limits assumed): as the sequence (P47870 25-512 partner limits assumed) above
T3 sequence (P18507 40-475): as the sequence (P18507 40-475) above

Turning to `CN1C(=O)CC(=O)N(c2ccccc2)c2cc(Cl)ccc21` [Clobazam], the inhibition constant (Ki) in [1] was 753 nM; in data set [2], 519 nM; in data set [3], 151 nM; in data set [4], 205 nM; in data set [6] it was 331 nM. Besides, the “Binding affinity normalized to GABAA α2 (ratio of Ki values)” value is listed as 1.6 in data set [5], 1 in data set [7], 3.7 in data set [8] and 2.5 in [9].
For `O=C1CN=C(c2ccccc2Cl)c2cc([N+](=O)[O-])ccc2N1` [Clonazepam], the Ki was 2.24 nM in [1]; 0.65 nM in [2]; 0.263 nM and 0.26 nM in data set [3]; 0.72 nM in data set [4]; 0.78 nM in data set [6]; 0.65 to 2.2 nM in data set [10]. Also, the “Binding affinity normalized to GABAA α2 (ratio of Ki values)” value in data set [5] is given as 1.1; in data set [7], 1; in [9] it was 0.9.
For `Cn1ncnc1COc1nn2c(-c3cc(F)ccc3F)nnc2cc1C(C)(C)C` [L-838,417], in data set [11], the anticonvulsant activity result is on record as “retains anticonvulsant activity”.
As for `O=C1CC(=O)N(c2ccccc2)c2cc(Cl)ccc2N1` [N-desmethylclobazam], the inhibition constant Ki in [3] was 132 nM and 133 nM; in data set [12] it was 661 nM and 668 nM; in [14] it was 295 nM and 292 nM; in data set [15], 148 nM and 147 nM; in data set [9], 631 nM and 634 nM. For the same compound, the “Binding affinity normalized to GABAA α2 (ratio of Ki values)” value was 2.0 in [5], 1 in data set [7], 4.6 in data set [8] and 4.3 in data set [9]. Also, in data set [13], the patients responding favorably is recorded as 8 of 9. In [16] (humans), the half-life is recorded as 79 h. Besides, the “concentration of N-CLB relative to the parent compound” value in data set [16] (prolonged clinical use of CLB) is reported as “more than 2 fold”.
In the case of `Cc1ccc(-c2nc3ccc(C)cn3c2CC(=O)N(C)C)cc1` [Zolpidem], the Ki in data set [6] is 5430 nM; in data set [10], 30 to 5430 nM.
`CN1C(=O)CN=C(c2ccccc2F)c2cc([N+](=O)[O-])ccc21` [^3H-flunitrazepam]: in [3] (read-out: Kd (tracer equilibrium dissociation constant), saturation binding, rat-brain homogenates), the equilibrium dissociation constant (Kd) worked out at 1.5 ± 0.2 nM.
`CN1C(=O)CN=C(c2ccccc2)c2cc(Cl)ccc21` [diazepam]: in data set [17] (wild-type mice, reversed from 6), the “seizure level on the Racine scale” value is 1. The “seizure scoring on the Racine scale” value in data set [17] (α2(H101R) mice) is “approximately 3.5”. Moreover, the “percentage of mice convulsing” value in data set [18] (wild-type mice) was “approximately 20%”; in [18] (α2(H101R) mice) it was “approximately 50%”. Besides, the “protection from tonic convulsions” value in [18] (10 and 30 mg/kg, both wild-type and α2(H101R) mice) is listed as 100%.
